# Source: US20100267629A1, “Enterostatin as Therapeutic Agent for Hypoglycemia” (Board of Supervisors of Louisiana State University and …, priority 2006, published 2010)
# Read-outs that look alike come from different tables or passages of the source.
# Tests used:
# [1] = target: T1, cholecystokinin A receptors (Homo sapiens, UniProt P32238); settings: cited from earlier work
# T1 sequence (P32238 1-428): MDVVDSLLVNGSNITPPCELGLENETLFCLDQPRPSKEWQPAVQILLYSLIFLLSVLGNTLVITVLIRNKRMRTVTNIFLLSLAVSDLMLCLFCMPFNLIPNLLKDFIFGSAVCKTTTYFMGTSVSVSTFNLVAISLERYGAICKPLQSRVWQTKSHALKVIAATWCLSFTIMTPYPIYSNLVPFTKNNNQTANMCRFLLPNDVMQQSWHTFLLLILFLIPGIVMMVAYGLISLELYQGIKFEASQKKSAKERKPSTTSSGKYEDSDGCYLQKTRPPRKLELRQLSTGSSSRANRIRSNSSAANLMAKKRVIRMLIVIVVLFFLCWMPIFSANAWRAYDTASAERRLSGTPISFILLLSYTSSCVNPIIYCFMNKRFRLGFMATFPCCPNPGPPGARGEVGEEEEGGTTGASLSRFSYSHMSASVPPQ
# [2] = peripheral and central administration; cited from earlier work
# [3] = tested on: rats; settings: cited from earlier work; for Duration of action on feeding: single injection
# [4] = tested on: C57B1/6 male mice; experiment: Blood glucose response to insulin; format: in vivo, mouse
# Protocol: (§1) Animals: C57B1/6 male mice were purchased from The Jackson Laboratory (Bar Harbor, Me.) at 6 weeks of age. The mice were initially housed in groups of three in acrylic cages in a room with a 12-hour light/dark cycle and with controlled temperature (22 to 23° C.) and with free access to water. The mice were fed a high fat diet (4.78 kcal/g, 56% energy as fat; Research Diets Inc, Brunswick, N.J.). The composition of the diet has been previously described (15). Body weights were measured three time per week. At 8 weeks of age, the mice were switched to single housing.
# (§2) Peptide Injections: Enterostatin was dissolved in 0.1 ml saline (0.9% NaCl w/v), and given as a single dose of either 5 μg or 25 μg/mouse. Either enterostatin or saline (control) was injected intraperitoneally. In the experiments involving insulin, insulin (0.75 mU/g body weight) or saline (0.1 ml/10 g body weight; control) was injected intraperitoneally.
# Enterostatin Effect on Blood Glucose Response to Insulin. To test the effect of enterostatin on the blood glucose response to exogenous insulin, mice were fasted for 4 hours, and insulin (0.75 mU/gm body weight) or saline (0.1 ml/10 gm body weight) was injected intraperitoneally at time zero. Enterostatin (5 or 25 ug/mouse in 0.1 ml saline vehicle) or saline vehicle was also injected intraperitoneally (ip) at time zero. Blood samples were taken from the tail vein immediately before the injections, and then at 15, 30, 45 and 60 minutes afterwards. The samples were assayed for glucose on a glucometer (Ascencia Elite XL, Bayer, Pittsburgh, Pa.).
# [5] = tested on: C57B1/6 male mice; experiment: Glucose tolerance test; format: in vivo, mouse; settings: 18 h fasted, vs control
# Protocol: as §1, §2
# Enterostatin Effect on Glucose Tolerance Tests: For glucose tolerance tests, mice were fasted overnight (18 hours). Enterostatin (5 or 25 ug/mouse in 0.1 ml saline vehicle) or saline vehicle was injected intraperitoneally (ip) 20 minutes before an intraperitoneal injection of glucose (1.0 mg/gm body weight). Blood samples were taken from the tail vein immediately before glucose administration, and then at 15, 30, 45 and 60 min after glucose injection. […]
# [6] = tested on: rats; settings: cited from earlier work
# [7] = tested on: sheep; settings: single-choice diet; cited from earlier work
# [8] = three-choice macronutrient diet
substance,measurement,setting,value
Enterostatin: aminoterminal pentapeptide of procolipase released when procolipase is converted into colipase (VPDPR; printed: Val-Pro-Asp-Pro-Arg),Binding,[1],not to bind
same,Insulin levels,[2],reduction in insulin levels
same,Plasma glucose,[2],without any changes in plasma glucose
same,Duration of action on feeding,[3]; rats adapted to ad-libitum feeding,up to 24 hours
same,Duration of action on feeding,[3]; rats adapted to six-hour feeding schedule,lasting up to six hours
same,Carbohydrate or protein intake,[3]; [8],no effect
same,Intake of the fat macronutrient,[3]; [8],reduced intake of the fat macronutrient
same,Intake of HF and LF diet,[3]; two-choice high-fat / low-fat diet,reduced only intake of the HF diet
same,Blood glucose level versus zero-time level after insulin,"[4]; 5 μg/mouse ip, at 60 min",had not returned to zero-time levels
same,Time for which blood glucose is increased after injection,[4]; conclusion from insulin response test,≥ 30 min
same,Delay of initial fall in blood glucose in response to insulin,[4]; higher dose (25 μg/mouse) ip,30 min
same,Blood glucose level versus zero-time level after insulin,"[4]; higher dose (25 μg/mouse) ip, 45 to 60 min",remained below the zero-time level
same,Clearance of blood glucose,[5]; 5 μg/mouse ip 20 min before glucose 1.0 mg/gm,no differences
same,Clearance of blood glucose,[5]; 25 μg/mouse ip 20 min before glucose 1.0 mg/gm,no differences
same,Fat deposition and body weight gain,"[6]; chronic icv, HF diets",reduction in fat deposition and body weight gain
same,Daily intake of dietary fat,"[6]; chronic icv, single-choice HF or two-choice HF/LF diet",attenuated the daily intake of dietary fat
same,Energy intake or change in body weight gain,"[6]; chronic treatment, low-fat diet for seven days",no significant reduction
same,Food intake,[7],reduce food intake
